Read-outs that look alike come from different tables or passages of the source. No end group written: not given here.
Tests used:
human red blood cells = conditions: pH 7
Staphylococcus epidermis = assay: Antimicrobial assay: growth inhibition in 96-well plates, O.D.620 at six hours; assay type: cell-based; conditions: for % Inhibit, S. epidermis: 1.0×10^6 CFU/ml; for Effective Growth Inhibition Conc., S. epidermis: concentration at which the reported % inhibition (greater than 80%) was found, 100% at next higher concentration if below 100%
Protocol: (§1) Antimicrobial assays were carried out in 96 -well tissue culture plates. Each well was incubated with a given microorganism suspended in LB medium (Escherichia coli, and Staphylococcus epidermis or YTB medium (Candida albicans). Upon the addition of the peptides or their deletion analogues, (dissolved in 1×PBS, pH 7.0) each well contained a final cell density of 1.0×10^6 colony forming units (CFU)/ml. The final peptide concentrations used were 100 μg/ml., 75.0 μg/ml, 50.0 μg/ml, 25 μg/ml, and 10 μg/ml Concentrations of up to 500 μg/ml, however, were employed against C. albicans.
(§2) Addition of peptides to the wells was defined as time zero. At six hours, the plates were placed in a Titertek Multiskan apparatus and the O.D.620 determined. The plates as well as the initial innoculum were incubated at 37° C.
(§3) Five wells per plate contained media alone. while five others contained medium plus cells. These controls were used to eliminate the possibility of media contamination while providing a measure of uninhibited growth of the microorganisms. The measurements of 1/(change in optical in density) for the wells containing either the peptides or their deletion analogues in the above-mentioned varying concentrations with the colony forming units of E. coli or S. epidermis are shown in FIGS. 1 and 2. FIG. 1 is a graph of the measurements of 1/(change in optical density) for wells containing Magainin I or Magainin II peptides or their deletion analogues and E. coli. FIG. 1a is a graph pertaining to Magainin I (indicated by X) and its deletion analogues. (The deletion analogue wherein amino acid 23 omitted was not tested). FIG. 1b is a graph pertaining to Magainin II (indicated by X) and its deletion analogues. In both graphs, Z is a control of medium plus cells.
FIG. 2 is a graph of the measurements of 1/(change in optical density) for wells containing Magainin I or Magainin II peptides or their deletion analogues and S. epidermis. FIG. 2a is a graph pertaining to Magainin I (indicated by X) and its deletion analogues. (The deletion analogue wherein amino acid 23 was deleted was not tested.) FIG. 2b is a graph pertaining to Magainin II (indicated by X) and its deletion analogues. In both graphs, Z is a control of medium plus cells. The measurements of 1/(change in optical density) as measured for the Magainin I and Magainin II peptides and their deletion analogues can be correlated to a measurement of their effectivness against E. coli and S. epidermis.
(§4) The degree of peptide activity was determined by comparing the deletion analogs with uninhibited growth of the control cells over a six-hour period. […] As listed in Table 1, M1C is Magainin I, C-terminal carboxyl carboxy-terminated), whereas M2A, is Magainin II, C-terminal amide (amide-terminated). The letter and number code after each M1C or M2A peptide indicates the amino acid residue deleted from the particular deletion analogue of Magainin I carboxY-terminated) or Magainin II (amide-terminated).

Escherichia coli = assay type: cell-based; conditions: six hours; for % Inhibit, E. coli: 1.0×10^6 CFU/ml; for Effective Growth Inhibition Conc., E. coli: concentration at which the reported % inhibition (greater than 80%) was found, 100% at next higher concentration if below 100%
Protocol: as §1, §2, §3, §4

E. coli = assay: Kinetics of microbial killing; assay type: cell-based; conditions: peptide 25 μg/ml; E. coli 1.0×10^6 CFU/ml; 37° C.
Protocol: Dissolved peptide preparations of amide-terminated Magainin II, amide-terminated Magainin II with glycine (amino acid 18) deleted, and amide-terminated Magainin II with glutamic acid (amino acid 19) deleted were added to test tubes containing E. coli (1.0×10^6 CFU/ml) to a final peptide concentration of 25 μg/ml. At the time points of 15, 30, 45, and 60 minutes after the addition, indicated in FIG. 3, 10.0 µl were removed from each tube and sequentially diluted by a factor of ten four times in LB medium. The number of bacteria at each time point was determined by plating 10.0 μl of the 10^-2, 10^-3, and 10^-4 dilutions. The log of the number of bacteria from these dilutions at each time point was determined, and was plotted on the graph in FIG. 3. Two controls, one with medium alone and one with no peptides were both incubated along with the tubes containing cells and peptides. The tubes as well as the agar plates used were incubated at 37° C.

**Q.** Which “% Hemolysis of Human Red Blood Cells” value (human red blood cells) does the source give for GIGKFHSAGKFGKAFVGEIMKS [M1C-L^6] here?
**A.** 0%

**Q.** How did the “% Inhibit, S. epidermis” value (Staphylococcus epidermis; peptide 100 μg/ml) turn out when GIGKFHSAKKFGKAFVGEIMNS-NH2 [M2A-L^6] was run?
**A.** 0%

**Q.** And the “% Hemolysis of Human Red Blood Cells” value (human red blood cells)?
**A.** 1%

**Q.** And the “% Inhibit, E. coli” value (Escherichia coli; peptide 100 μg/ml)?
**A.** 0%

**Q.** How did the “% Hemolysis of Human Red Blood Cells” value (human red blood cells) turn out when GIGKFLHSAGKFGKAFGEIMKS [M1C-V^17] was run?
**A.** 1%

**Q.** GIGKFLHSAGKFGKAFVGEIKS [M1C-M^21] was tested. Which “% Hemolysis of Human Red Blood Cells” value (human red blood cells) did it give?
**A.** 1%

**Q.** GIGKFLHSAGKFGKAFVGEIMK [M1C-S^23] was tested. Which “% Hemolysis of Human Red Blood Cells” value (human red blood cells) did it give?
**A.** 0%

**Q.** How did the “% Hemolysis of Human Red Blood Cells” value (human red blood cells) turn out when “GIGKFLHSAGKFGKAFVGEIMKS [Peptide M1C, Magainin I, reference compound]” was run?
**A.** 2%

**Q.** How did the “% Hemolysis of Human Red Blood Cells” value (human red blood cells) turn out when GIGKFLHSAGKFGKAFVGEMKS [M1C-I^20] was run?
**A.** 1%

**Q.** With GIGKFLHSAGKFGKAFVGIMKS [M1C-E^19] as the substance, how does the “% Hemolysis of Human Red Blood Cells” value (human red blood cells) read?
**A.** 1%

**Q.** What does the source list for GIGKFLHSAKKFGKAFGEIMNS-NH2 [M2A-V^17]?
**A.** % Inhibit, S. epidermis (Staphylococcus epidermis; peptide 100 μg/ml): 0%; % Hemolysis of Human Red Blood Cells (human red blood cells): 0%; Effective Growth Inhibition Conc., E. coli (Escherichia coli): 50 µg/mL; % Inhibit, E. coli (Escherichia coli; peptide 50 μg/ml): 87%

**Q.** Which “Effective Growth Inhibition Conc., S. epidermis” value (Staphylococcus epidermis) does the source give for GIGKFLHSAKKFGKAFVEIMNS-NH2 [M2A-G^18] here?
**A.** 10 µg/mL

**Q.** What about the “% Inhibit, S. epidermis” value (Staphylococcus epidermis; peptide 10 μg/ml) of the same substance?
**A.** 89%

**Q.** What about the “% Inhibit, S. epidermis” value (Staphylococcus epidermis; peptide 50 μg/ml) of the same substance?
**A.** 80%

**Q.** What about the “% Inhibit, S. epidermis” value (Staphylococcus epidermis; peptide 100 μg/ml) of the same substance?
**A.** 0%

**Q.** What about the “time until all E. coli cells were killed after addition of the peptide” value (from here on “time until all E. coli cells were killed”) (E. coli) of the same substance?
**A.** ≤ 15 min

**Q.** And the “Effective Growth Inhibition Conc., E. coli” value (Escherichia coli)?
**A.** 10 µg/mL

**Q.** What about the “Effective Growth Inhibition Conc., E. coli” value (Escherichia coli; listed as M2A-G^3) of the same substance?
**A.** 100 µg/mL

**Q.** What about the “Effective Growth Inhibition Conc., E. coli” value (Escherichia coli; listed as M2A-G^13) of the same substance?
**A.** 25 µg/mL

**Q.** And the “% Inhibit, E. coli” value (Escherichia coli; peptide 10 μg/ml)?
**A.** 94%

**Q.** And the “% Inhibit, E. coli” value (Escherichia coli; peptide 25 μg/ml)?
**A.** 89%

**Q.** What about the “% Inhibit, E. coli” value (Escherichia coli; peptide 100 μg/ml) of the same substance?
**A.** 0%

**Q.** And the “% Inhibit, E. coli” value (Escherichia coli; peptide 100 μg/ml, listed as M2A-G^3)?
**A.** 93%

**Q.** GIGKFLHSAKKFGKAFVGEIMN-NH2 [M2A-S^23] was tested. Which “% Inhibit, S. epidermis” value (Staphylococcus epidermis; peptide 100 μg/ml) did it give?
**A.** 0%

**Q.** And the “Effective Growth Inhibition Conc., E. coli” value (Escherichia coli)?
**A.** 25 µg/mL

**Q.** What about the “Effective Growth Inhibition Conc., E. coli” value (Escherichia coli; listed as M2A-S^8) of the same substance?
**A.** 75 µg/mL

**Q.** And the “% Inhibit, E. coli” value (Escherichia coli; peptide 25 μg/ml)?
**A.** 100%

**Q.** What about the “% Inhibit, E. coli” value (Escherichia coli; peptide 75 μg/ml) of the same substance?
**A.** 90%

**Q.** Which “% Inhibit, E. coli” value (Escherichia coli; peptide 50 μg/ml) does the source give for “GIGKFLHSAKKFGKAFVGEIMNS [Peptide M2-Carboxy, Magainin II, reference compound]” here?
**A.** 100%

**Q.** For “GIGKFLHSAKKFGKAFVGEIMNS-NH2 [Peptide M2A, reference compound]”, which “Effective Growth Inhibition Conc., S. epidermis” value (Staphylococcus epidermis) is on record?
**A.** 25 µg/mL

**Q.** And the “% Inhibit, S. epidermis” value (Staphylococcus epidermis; peptide 25 μg/ml)?
**A.** 93%

**Q.** What about the “% Hemolysis of Human Red Blood Cells” value (human red blood cells) of the same substance?
**A.** 4%

**Q.** What about the “time until all E. coli cells were killed” value (E. coli) of the same substance?
**A.** much slower

**Q.** And the “Effective Growth Inhibition Conc., E. coli” value (Escherichia coli)?
**A.** 25 µg/mL

**Q.** What about the “% Inhibit, E. coli” value (Escherichia coli; peptide 25 μg/ml) of the same substance?
**A.** 100%

**Q.** Which results are given for GIGKFLHSAKKFGKAFVGEIMS-NH2 [M2A-N^22]?
**A.** Effective Growth Inhibition Conc., S. epidermis (Staphylococcus epidermis): 75 µg/mL; % Inhibit, S. epidermis (Staphylococcus epidermis; peptide 75 μg/ml): 100%; % Hemolysis of Human Red Blood Cells (human red blood cells): 2%; Effective Growth Inhibition Conc., E. coli (Escherichia coli): 25 µg/mL; % Inhibit, E. coli (Escherichia coli; peptide 25 μg/ml): 100%

**Q.** How did the “Effective Growth Inhibition Conc., S. epidermis” value (Staphylococcus epidermis) turn out when GIGKFLHSAKKFGKAFVGEINS-NH2 [M2A-M^21] was run?
**A.** 75 µg/mL

**Q.** And the “% Inhibit, S. epidermis” value (Staphylococcus epidermis; peptide 75 μg/ml)?
**A.** 90%

**Q.** And the “% Hemolysis of Human Red Blood Cells” value (human red blood cells)?
**A.** 0%

**Q.** And the “Effective Growth Inhibition Conc., E. coli” value (Escherichia coli)?
**A.** 25 µg/mL

**Q.** What about the “% Inhibit, E. coli” value (Escherichia coli; peptide 25 μg/ml) of the same substance?
**A.** 95%

**Q.** Which results are given for GIGKFLHSAKKFGKAFVGEMNS-NH2 [M2A-I^20]?
**A.** % Inhibit, S. epidermis (Staphylococcus epidermis; peptide 100 μg/ml): 0%; % Hemolysis of Human Red Blood Cells (human red blood cells): 0%; Effective Growth Inhibition Conc., E. coli (Escherichia coli): 25 µg/mL; % Inhibit, E. coli (Escherichia coli; peptide 25 μg/ml): 84%; % Inhibit, E. coli (Escherichia coli; peptide 100 μg/ml): 0%

**Q.** For GIGKFLHSAKKFGKAFVGIMNS-NH2 [M2A-E^19], which “Effective Growth Inhibition Conc., S. epidermis” value (Staphylococcus epidermis) is on record?
**A.** 10 µg/mL

**Q.** What about the “% Inhibit, S. epidermis” value (Staphylococcus epidermis; peptide 10 μg/ml) of the same substance?
**A.** 89%

**Q.** What about the “% Hemolysis of Human Red Blood Cells” value (human red blood cells) of the same substance?
**A.** 0%

**Q.** And the “time until all E. coli cells were killed” value (E. coli)?
**A.** ≤ 15 min

**Q.** What about the “Effective Growth Inhibition Conc., E. coli” value (Escherichia coli) of the same substance?
**A.** 10 µg/mL

**Q.** What about the “% Inhibit, E. coli” value (Escherichia coli; peptide 10 μg/ml) of the same substance?
**A.** 92%

**Q.** Which results are given for GIGKFLHSAKKFGKAVGEIMNS-NH2 [M2A-F^16]?
**A.** % Inhibit, S. epidermis (Staphylococcus epidermis; peptide 100 μg/ml): 0%; % Hemolysis of Human Red Blood Cells (human red blood cells): 1%; Effective Growth Inhibition Conc., E. coli (Escherichia coli): 100 µg/mL; % Inhibit, E. coli (Escherichia coli; peptide 100 μg/ml): 92%; % Inhibit, E. coli (Escherichia coli; peptide 100 μg/ml, listed as M2A-F^5): 0%; % Inhibit, E. coli (Escherichia coli; peptide 100 μg/ml, listed as M2A-F^12): 0%

**Q.** Which results are given for GIGKFLHSAKKFGKFVGEIMNS-NH2 [M2A-A^15]?
**A.** Effective Growth Inhibition Conc., S. epidermis (Staphylococcus epidermis): 25 µg/mL; % Inhibit, S. epidermis (Staphylococcus epidermis; peptide 25 μg/ml): 90%; % Inhibit, S. epidermis (Staphylococcus epidermis; peptide 100 μg/ml): 0%; Effective Growth Inhibition Conc., E. coli (Escherichia coli): 10 µg/mL; Effective Growth Inhibition Conc., E. coli (Escherichia coli; listed as M2A-A^9): 75 µg/mL; % Inhibit, E. coli (Escherichia coli; peptide 10 μg/ml): 95%; % Inhibit, E. coli (Escherichia coli; peptide 75 μg/ml): 82%

**Q.** Which “% Hemolysis of Human Red Blood Cells” value (human red blood cells) does the source give for GIGKFLSAGKFGKAFVGEIMKS [M1C-H^7] here?
**A.** 0%

**Q.** Which “% Inhibit, S. epidermis” value (Staphylococcus epidermis; peptide 100 μg/ml) does the source give for GIGKFLSAKKFGKAFVGEIMNS-NH2 [M2A-H^7] here?
**A.** 0%

**Q.** And the “% Hemolysis of Human Red Blood Cells” value (human red blood cells)?
**A.** 0%

**Q.** And the “Effective Growth Inhibition Conc., E. coli” value (Escherichia coli)?
**A.** 100 µg/mL

**Q.** What about the “% Inhibit, E. coli” value (Escherichia coli; peptide 100 μg/ml) of the same substance?
**A.** 90%

From patent publication US4962277A, “Deletion analogues of magainin peptides” (priority 1988, dated 1990)
